How the values were obtained:
pfNDH2 [1] = biological target: T1, pfNDH2 (Plasmodium falciparum, UniProt Q8I302); experiment: biochemical; format: biochemical; conditions: for inhibition of pfNDH2 activity (in words): purified recombinant pfNDH2, concentrations of up to 10 µM
pfDHOD = biological target: T2, pfDHOD (Plasmodium falciparum, UniProt Q08210); experiment: biochemical
T2 sequence (Q08210 24-569): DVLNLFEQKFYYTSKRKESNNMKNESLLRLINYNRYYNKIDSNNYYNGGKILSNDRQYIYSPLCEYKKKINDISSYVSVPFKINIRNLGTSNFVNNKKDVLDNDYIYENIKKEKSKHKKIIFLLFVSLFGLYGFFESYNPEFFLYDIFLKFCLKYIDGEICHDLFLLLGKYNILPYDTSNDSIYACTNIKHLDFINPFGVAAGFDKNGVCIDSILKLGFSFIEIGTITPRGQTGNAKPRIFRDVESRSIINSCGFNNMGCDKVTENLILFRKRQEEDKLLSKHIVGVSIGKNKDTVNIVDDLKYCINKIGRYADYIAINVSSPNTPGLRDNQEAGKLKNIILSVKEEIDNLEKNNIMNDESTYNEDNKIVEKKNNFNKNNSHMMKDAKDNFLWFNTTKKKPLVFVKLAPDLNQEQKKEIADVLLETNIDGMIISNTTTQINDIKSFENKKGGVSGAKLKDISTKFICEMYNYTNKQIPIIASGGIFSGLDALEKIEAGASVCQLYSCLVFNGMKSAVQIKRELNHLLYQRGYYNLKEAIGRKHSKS

pfNDH2 [2] = biological target: T1, pfNDH2; experiment: Kinetic properties of purified pfNDH2 with electron-accepting substrates; format: biochemical; conditions: in vitro, absence of membrane components
[3] = system: O=C1C=CC(=Nc2cc(Cl)c(O)c(Cl)c2)C=C1; experiment: as above; format: biochemical, Plasmodium falciparum; conditions: pH 8.0; 100.0 °C
P. falciparum DD2-scDHOD = format: cell-based, Plasmodium falciparum; conditions: drug concentration of up to 10 µM

Row | Compound | IC50 (pfNDH2 [1]) [µM] | IC50 (pfDHOD) [µM] | utilization as electron acceptor substrate by pfNDH2 (in words) (pfNDH2 [2]) | also measured
1 | [Cl-].c1ccc([I+]c2ccccc2)cc1 [IDP, diphenyliodonium chloride] | > 10 | > 10 |  | inhibition of pfNDH2 activity (in words) (pfNDH2 [1]): do not inhibit
2 | CCCCCCCCCCC1=C(C)C(=O)C(OC)=C(OC)C1=O [CoQD] |  |  | not efficiently utilized | 
3 | COC1=C(OC)C(=O)C(C/C=C(\C)CC/C=C(\C)CC/C=C(\C)CCC=C(C)C)=C(C)C1=O [CoQ4] |  |  | not efficiently utilized | 
4 | O=C1C(O)=C([C@H]2CC[C@H](c3ccc(Cl)cc3)CC2)C(=O)c2ccccc21 [Atovaquone] | > 10 | > 10 |  | 
5 | COC1=C(OC)C(=O)C(C)=CC1=O [CoQ0] |  |  | detectable catalysis | 
6 | O=c1cc(-c2ccccc2)oc2ccccc12 [Flavone] | > 10 | > 10 |  | 
7 | C[C@@H]1CC[C@H]2[C@@H](C)C(=O)O[C@@H]3O[C@@]4(C)CC[C@@H]1[C@]32OO4 [Artemisinin] | > 10 | > 10 |  | inhibition of pfNDH2 activity (in words) (pfNDH2 [1]): did not perturb catalysis
8 | COC1=C(OC)C(=O)C(CC=C(C)C)=C(C)C1=O [CoQ1] |  |  | detectable catalysis | 
9 | pfNDH2 (Plasmodium falciparum 3D7) |  |  |  | Km [3]: 4.6 µM; kcat [3]: 0.0317 s⁻¹
10 | CCCCCCCCCCCCc1cc(=O)c2ccccc2n1O [HDQ, 1-hydroxy-2-dodecyl-4(1H)quinolone] | > 10 |  |  | inhibition of pfNDH2 activity (in words) (pfNDH2 [1]): do not inhibit; proliferation of the scDHOD-expressing transgenic strain (in words) (P. falciparum DD2-scDHOD): unaffected
11 | C=C(C)[C@H]1Cc2c(ccc3c2O[C@@H]2COc4cc(OC)c(OC)cc4[C@@H]2C3=O)O1 [Rotenone] | > 10 | > 10 |  | 

Source: PMC4422330 (Bioorganic & medicinal chemistry letters, 2008)
